According to patent US20120308623A1, “COMPOSITION COMPRISING NANOPARTICLES OF TI02” (priority 2009, published 2012):

What was measured:
[1] = pH of the suspension containing MB; assay type: physicochemical; conditions: Example 1: H2O2 at 15 vol. %, without or with TiO2
Description: (§1) The aim was to measure if methylene blue could be degradated by H2O2 (PERDROGEN® 30% H2O2 (w/w), Sigma Aldrich AS, Oslo, Norway) at 15% only, without TiO2 or UV irradiation. Then, an increasing concentration of TiO2 (Aeroxide P25, Evonik AG, Essen, Germany) was added to the solution until a maximum concentration of 8 g/L. The measurements were taken every 3 minutes for one hour. The pH of the suspension containing MB was also registered. The suspension was stirred prior to each measurement to prevent the deposition of the TiO2 particles.
The aim was to measure if methylene blue could be degradated by TiO2 nanoparticles only (Aeroxide P25, Evonik AG, Essen, Germany), without H2O2 or UV irradiation. Then, an increasing concentration of H2O2 (PERDROGEN® 30% H2O2 (w/w), Sigma Aldrich AS, Oslo, Norway) was added to the suspension until a maximum concentration of 15 vol. %. The procedure of the experiment was the same as explained in example 1.

[2] = Methylene blue degradation measured by UV-vis spectrophotometry; conditions: Example 1: H2O2 at 15 vol. %, TiO2 at various concentrations, no UV irradiation, measured every 3 minutes for one hour
From the text: Methylene blue (MB) is a heterocyclic aromatic chemical compound with molecular formula: C16H18N3SCl (AldrichSigmaAldrich, Oslo, Norway). It has many uses in a range of different fields, such as biology and chemistry. […] A degradadation of MB therefore can be used as a model for the in vivo degradation of organic material, such as bacteria, or dead, damaged, and/or infected tissue. At room temperature it appears as a solid, odourless, dark green powder that yields a blue solution when dissolved in water. When degradated in solution, methylene blue becomes colourless. When methylene blue is analysed by UV-vis spectrophotometry (Lambda 25, Perkin Elmer, USA), it absorbs light at […]. This machine was used to quantify the degradation of MB.
as §1, with “particles. […]” for “particles.”

Question: What does the source list for `OO` [H2O2 at 15 vol. %, H2O2]?
Answer: pH of the suspension containing MB [1]: 3.7; Methylene blue degradation [2]: Almost no degradation
